In patent publication US6677501B2, “P2X7 receptor-deficient mice and uses thereof” (Pfizer, Inc., priority 2000, dated 2004):
“And” between values parts separate entries of the source, which are not always exact repeats. Equal values may be shown once.

Columns and labels:
[1] = test system: mouse peritoneal macrophages; experiment: YoPro Yellow uptake by peritoneal macrophages; type: cell-based; settings: 5 mM ATP
Protocol: Peritoneal macrophages were washed with Isotonic Medium (15 mM Hepes, pH 7.2, 135 mM NaCl, 5 mM KCl, […], […]) by centrifugation and the resulting cell pellet was suspended in Isotonic Medium to achieve a final cell concentration of 1×10^6 cells/ml. Fifty μl of this cell suspension then was placed into wells of a Microfluor “B” U-bottom plate (Dynatech, Chantilly, Va.), and 50 μl of 2 μM YoPro Yellow (Molecular Probes, Eugene, Ore.); the fluorescent dye was dissolved in Isotonic Medium. Wells were then adjusted to 5 mM ATP or 0.0075% saponin by addition of concentrated stock solutions of these agents. Fluorescence was monitored as a function of time at 37° C., excitation, 450 nm/emission, 530 nm.

[2] = test system: LPS-activated peritoneal macrophages; experiment: Stimulus-induced IL-1β posttranslational processing in vitro; type: cell-based, mouse; settings: 35S-methionine-labeled, 30 min, 5 mM ATP or 20 μM nigericin
Protocol: (§1) Macrophages from wild type and P2×7^−/− animals (1×10^6 cells seeded per well of 6-well cluster plates) were stimulated with 1 μg/ml E. coli LPS (Serotype 055 B5 obtained from Sigma; St. Louis, Mo.) for 75-90 minutes and then rinsed with 2 ml of methionine-free RPMI medium containing 100 units/mi penicillin, 100 μg/ml streptomycin, 1% dialyzed FBS, 1 μg/ml LPS, and 25 mM Hepes, pH 7.3 (Pulse Medium). One ml of Pulse Medium containing 83 μCi/Ml of ^35S-methionine (Amersham Corp, Chicago, Ill.) then was added to each well, and the cells were labeled at 37° C. for 1 hour. These labeled cells subsequently were rinsed twice with RPMI 1640 medium containing 100 units/mil penicillin, 100 μg/ml streptomycin, 1% FBS, 2 mM glutamine, 1 μg/ml LPS and 25 mM Hepes, pH 7.3 (Chase Medium). One ml of Chase Medium (containing no effector (control) or containing 05 mM ATP, or 20 mM nigericin) was then added to each well, and the cells were chased at 37° C. for 30 minutes. Media were harvested and clarified by centrifugation (6000×g for 5 minutes) to remove cells and/or cell debris. Cell monolayers were suspended in 1 ml of a lysis buffer composed of 1% Triton X-100, 150 mM NaCl, 25 mM Hepes, pH 7, 0.1 mM PMSF, 1 mg/ml ovalbumin, 1 mM iodoacetic acid, 1 μg/ml pepstatin, and 1 μg/ml leupeptin. Clarified media samples were adjusted to the same final Triton X-100 and protease inhibitor concentrations by addition of aliquots from concentrated stocks of these reagents. After a 30 minute incubation on ice, all samples were clarified by centrifugation at 45,000 rpm for 30 minutes in a TLA-45 rotor (Beckman, Palo Alto, Calif.), the resulting supernatants were recovered, and IL-1β was immunoprecipitated from these samples using a goat anti-murine IL-1β serum obtained from Dr. Ivan Otterness (Pfizer Central Research, Groton, Conn.). Immnunoprecipitates were fractionated by SDS gel electrophoresis, the quantity of radioactivity associated with individual IL-1β polypeptide species was determined by scanning dried gels with a Phosphoimager.

[3] = test system: LPS-activated peritoneal macrophages; experiment: LDH release from LPS-activated macrophage cultures; type: cell-based, mouse; settings: 30 min
Protocol: FIG. 6B is a graphic representation showing the percentage of lactate dehydrogenase (LDH) released from the total culture associated LDH in the samples described in FIG. 6A;
as §1, with “After a 30 minute incubation on ice, all samples were clarified by centrifugation at 45,000 rpm for 30 minutes in a TLA-45 rotor (Beckman, Palo Alto, Calif.), the resulting supernatants were recovered, and IL-1β was immunoprecipitated from these samples using a goat anti-murine IL-1β serum obtained from Dr. Ivan Otterness (Pfizer Central Research, Groton, Conn.).” left out

IL-1β = experiment: ATP-induced IL-1β posttranslational processing in vivo (peritoneal lavage ELISA); parameters: species or system mouse
Protocol: (§2) ATP-Induced IL-1β Posttranslational Processing In Vivo Groups of mice were injected intraperitoneally (ip) with 1 μg of LPS. Two hours after this LPS injection, mice were injected ip with either 30 mM ATP (adjusted to pH 7) or PBS. Mice were sacrificed 30 minutes or 120 minutes after the ATP or PBS injection and peritoneal cavities were lavaged, each with 3 ml of RPMI (5% FCS). Samples of peritoneal lavages were spun down, supernatants were collected and tested for the presence of IL-1β and IL-6 using ELISAs (Amersham Life Sciences, Arlington Heights, Va. and Endogen, Woburn, Mass., respectively).

IL-6 = experiment: ATP-induced IL-6 release in LPS-primed mice (peritoneal lavage ELISA); type: in vivo, mouse; settings: for IL-6 (ng/ml), ATP Challenge, P2×7R-/-: LPS-primed P2×7R-/- mice; for IL-6 (ng/ml), ATP Challenge, P2×7R-/- / IL-6 (ng/ml), ATP Challenge, WT: ip ATP, peritoneal lavage; for IL-6 (ng/ml), ATP Challenge, WT: LPS-primed wild-type mice
Protocol: as §2
As noted earlier, IL-1 signaling often leads to the production of other cytokines such as IL-6 (Allen et al. (2000) J. Exp. Med. 191:859-869). […] Two hours later an injection of ATP (or PBS) was administered to promote IL-1 posttranslational processing and the mice were incubated for an additional 4 hours. Peritoneal lavages were collected at several times during the course of the experiment and analyzed for IL-6 by ELISA. […] Mice that received an initial priming injection of LPS followed by PBS yielded levels of IL-6 at 1 and 2 hours (4 to 5 ng/ml) that were elevated above those recovered from mice injected with the combination of phosphate buffered saline and ATP (FIG. 8). By 4 hours, however, IL-6 levels recovered from the LPS-PBS treated animals returned to baseline (FIG. 9).

P2×7R = settings: cited from earlier work
other P2× receptors = settings: cited from earlier work

Structure (SMILES): Nc1ncnc2c1ncn2[C@@H]1O[C@H](COP(=O)(O)OP(=O)(O)OP(=O)(O)O)[C@@H](O)[C@H]1O [ATP]
- YoPro Yellow fluorescence intensity ([1]; P2×7R-/- macrophages): did not result in time-dependent increase in fluorescence intensity
- YoPro Yellow fluorescence intensity ([1]; wild-type macrophages): time dependent increase in fluorescence intensity
- extracellular 17 kDa IL-1β as percentage of total radiolabeled IL-1β recovered ([2]; P2×7R-/- macrophages): did not release any radiolabeled IL-1β
- extracellular 17 kDa IL-1β as percentage of total radiolabeled IL-1β recovered ([2]; wild-type macrophages): 64%
- release of lactate dehydrogenase (LDH) ([3]; wild-type macrophages): enhanced release
- IL-1β in peritoneal lavage after ATP challenge (IL-1β; LPS-primed mice heterozygous (+/-) for the P2×7R disruption, 30 min): A similar pattern
- IL-1 (ng/ml), ATP Challenge, WT (IL-1β; LPS-primed wild-type mice, ip ATP, 120 min post challenge, peritoneal lavage): 0.34 ng/mL and 0.33 ± 0.08 ng/mL
- IL-6 (ng/ml), ATP Challenge, P2×7R-/- (IL-6; 30 min post challenge): 9 ± 1 ng/mL
- IL-6 (ng/ml), ATP Challenge, P2×7R-/- (IL-6; 120 min post challenge): 6 ng/mL
- IL-6 (ng/ml), ATP Challenge, WT (IL-6; 30 min post challenge): 8.2 ± 1.7 ng/mL
- IL-6 (ng/ml), ATP Challenge, WT (IL-6; 120 min post challenge): 17 ng/mL and 16.8 ± 2.3 ng/mL
- peak lavage fluid IL-6 (IL-6; wild-type mice, LPS at time 0, ATP at 2 hours, 4 hour time point): > 25 ng/mL
- lavage fluid IL-6 (IL-6; wild-type mice, priming injection of PBS followed 2 hours later by ATP): did not contain significant levels of IL-6 at any time
- levels of ATP required to achieve activation (P2×7R): > 1 mM
- ATP concentrations at which receptors activate (other P2× receptors): ≤ 100 µM

Structure (SMILES): CO[C@@H]1C[C@@H](C[C@H]2CC[C@H](C)[C@H]([C@@H](C)C(=O)O)O2)O[C@]2(O[C@](C)([C@H]3CC[C@@](C)([C@@H]4O[C@@H]([C@H]5O[C@@](O)(CO)[C@H](C)C[C@@H]5C)C[C@@H]4C)O3)C[C@H]2C)[C@@H]1C [nigericin]
- extracellular 17 kDa IL-1β as percentage of total radiolabeled IL-1β recovered ([2]; P2×7R-/- macrophages): 74%
- extracellular 17 kDa IL-1β as percentage of total radiolabeled IL-1β recovered ([2]; wild-type macrophages): 66%
- release of lactate dehydrogenase (LDH) ([3]; P2×7R-/- macrophages): comparable quantities of LDH
- release of lactate dehydrogenase (LDH) ([3]; wild-type macrophages): comparable quantities of LDH
